From publication PMC9998255 (Archives of Pharmacal Research, 2023)

What was measured:
NLRP3 inflammasome = assay type: cell-based, C57BL/6 mice
[1] = 0.5 h, pH 7.4
[2] = 0.5 h, pH 7.4; remark: listed apart in the source
[3] = in vivo; cited from earlier work
[4] = system: TAA-induced liver fibrosis; design: species or system BALB/c mice; details: mouse, in vivo

CC(=O)OC[C@H]1O[C@@H]([S-])[C@H](OC(C)=O)[C@@H](OC(C)=O)[C@@H]1OC(C)=O.CCP(CC)CC.[Au+] [auranofin]
effect on ATP-induced IL-1β secretion (NLRP3 inflammasome): inhibited ATP-induced IL-1β secretion
percentage remaining after incubation with human liver microsomes [1]: 6.9%
percentage remaining after incubation with mouse liver microsomes [2]: 1.5%
fraction absorbed through the gastrointestinal tract [3]: 15–25%
efficacy on liver fibrosis compared with 10 mg/kg aurocyanide [4]: similar
